The numbers were not newly measured in US8524697B2, “C20-C21 substituted glucocorticoid receptor agonists” (Merck Sharp & Dohme Corp., priority 2007, dated 2013), which cites them from elsewhere.

Structures are written as SMILES.

This series deals with SYK kinase (Homo sapiens, UniProt P43405). As to conditions: symptoms associated with chronic nasal congestion.

In the case of `Oc1cccc(Nc2ncc(F)c(Nc3cccc(O)c3)n2)c1` [Example R112], the “absolute difference over placebo” value is on record as 9%, the “improvement from baseline measurements (prior to drug initiation)” value is listed as “up to 38%” and the “relative improvement over placebo” value was “greater than 20%”.
